Experimental data taken from patent US5486597A, “Tetrapeptide derivatives and analogues” (James Black Foundation Limited, priority 1990, dated 1996).
Non-standard residues stand in square brackets, D forms with d. Residues, ends and D or L forms follow the SMILES beside them. *: point of attachment. Trp(1-Me) = Cn1cc(C[C@H](N)C(=O)O)c2ccccc21; αMeW = C[C@](N)(Cc1c[nH]c2ccccc12)C(=O)O; 2Nal = N[C@@H](Cc1ccc2ccccc2c1)C(=O)O; d1Nal = N[C@H](Cc1cccc2ccccc12)C(=O)O; Adoc = O=C(OC12CC3CC(CC(C3)C1)C2)*; Boc = CC(C)(C)OC(=O)*; For = O=C*

Key:
[1] = molecular target: T1, cholecystokinin receptors (Cavia porcellus, UniProt Q63931); assay: CCK-antagonist activity in isolated guinea-pig gall-bladder strip preparations; assay type: cell-based; conditions: guinea-pig gall-bladder strips; CCK-8 as agonist; test compound incubated for 60 minutes; standard errors less than 5%
T1 construct: Isolated, strip preparations were prepared from gall-bladders removed from male Dunkin-Hartley guinea-pigs; from tissue; host or cells: guinea-pig gall-bladder strips
T1 sequence (Q63931 1-430): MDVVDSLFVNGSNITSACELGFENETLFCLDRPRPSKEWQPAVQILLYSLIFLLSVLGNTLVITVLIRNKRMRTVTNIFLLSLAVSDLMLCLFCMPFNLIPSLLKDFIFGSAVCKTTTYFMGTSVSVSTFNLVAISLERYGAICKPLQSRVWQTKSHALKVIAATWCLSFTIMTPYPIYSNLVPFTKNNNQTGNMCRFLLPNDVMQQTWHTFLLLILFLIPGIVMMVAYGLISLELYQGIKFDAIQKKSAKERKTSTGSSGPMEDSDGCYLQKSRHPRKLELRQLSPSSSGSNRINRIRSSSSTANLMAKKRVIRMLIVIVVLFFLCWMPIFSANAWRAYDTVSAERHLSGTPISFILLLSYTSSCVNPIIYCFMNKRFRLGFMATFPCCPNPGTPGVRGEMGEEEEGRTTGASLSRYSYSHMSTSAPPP
Description: The compounds of the invention were also assayed for CCK-antagonist activity as follows:
Isolated, strip preparations were prepared from gall-bladders removed from male Dunkin-Hartley guinea-pigs (250-500 g body weight) according to the method of La Morte, W. W., et al., J.P.E.T., 217, (3), 638-644 (1981).
The complete gall-bladder is removed and opened along the longitudinal axis. Strips measuring 3 mm in the longitudinal axis and 1 mm in the transverse axis are cut and then tied with cotton to stainless steel wires. The preparation is connected to a GRASS FTO3 isometric transducer under an initial loading tension of 1 g and is immersed in 20 mls of Krebs solution maintained at 37° C. and gassed with 95% O2 /5% CO2. The Krebs solution is as detailed above in connection with the fundus assay, except that the Ca^2+ concentration is decreased to 0.5 mM. After 30 mins the preparation is washed. Drug addition begins after an initial 90 min stabilisation period. Responses are measured as changes in tension from that immediately prior to any drug addition. Single cumulative agonist concentration-effect curves, using CCK-8 as agonist, are obtained on each preparation in the absence and presence of test compound which has been incubated for 60 minutes. The antagonist activity of the test compound is estimated and expressed as the negative logarithm (base 10) of the equilibrium dissociation constants (pK8) using the modifications of standard competitive analysis described by Black et al., Br. J. Pharmacol.,86,571-579, (1985) and Shankley et al., Br. J. Pharmacol.,94,264-274 (1988).

gastrin receptor = molecular target: T2, gastrin receptor (Mus musculus, UniProt P56481); assay: mouse stomach assay for gastrin activity (isolated stomach, acid secretion); assay type: cell-based; conditions: for Acid seretion at 10^-5 M test compound, relative to pentagastrin (%): mouse stomach, NS = not significant
T2 construct: assayed for gastrin activity using the mouse stomach assay; from tissue; host or cells: isolated mouse stomach
T2 sequence (P56481 1-453): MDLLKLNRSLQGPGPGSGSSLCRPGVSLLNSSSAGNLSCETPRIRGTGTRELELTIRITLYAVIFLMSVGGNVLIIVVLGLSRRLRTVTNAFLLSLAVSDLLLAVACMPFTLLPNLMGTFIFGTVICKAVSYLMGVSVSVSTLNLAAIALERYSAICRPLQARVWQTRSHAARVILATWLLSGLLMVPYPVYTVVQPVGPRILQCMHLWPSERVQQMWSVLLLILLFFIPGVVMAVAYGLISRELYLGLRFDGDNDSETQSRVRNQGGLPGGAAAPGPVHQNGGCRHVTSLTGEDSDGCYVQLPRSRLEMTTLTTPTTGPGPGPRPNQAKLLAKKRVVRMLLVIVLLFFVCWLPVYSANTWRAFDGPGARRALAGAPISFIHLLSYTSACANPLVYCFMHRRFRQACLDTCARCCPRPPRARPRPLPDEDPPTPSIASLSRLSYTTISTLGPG
Description: The compounds were assayed for gastrin activity using the mouse stomach assay as described by Black, J. W. and Shankley, N. P., Br. J. Pharmacol., 86, 571-579, (1985), and also in the guinea-pig fundus assay, as follows: […]

[2] = isolated mouse stomach assay, gastrin antagonism, standard errors less than 5%

Molecule	pKB [1]	Acid seretion at 10^-5 M test compound, relative to pentagastrin (%) (gastrin receptor)	other results
CC(C)(C)OC(=O)N[C@@H](Cc1c[nH]c2ccccc12)C(=O)N[C@@H](Cc1ccc2ccccc2c1)C(=O)N[C@@H](CC(=O)O)C(=O)NCCc1ccc2c(c1)CCCC2 [Example 43, N-t-Butyloxycarbonyl-L-tryptophyl-L-3-(2-naphthyl)alanyl-L-aspartyl-2-(5,6,7,8-tetrahydronaphthyl)ethylamide]	6.5	–	–
COc1cc(OC)c(CCNC(=O)[C@H](CC(=O)O)NC(=O)[C@H](Cc2ccc3ccccc3c2)NC(=O)[C@H](Cc2c[nH]c3ccccc23)NC(=O)OC(C)(C)C)c(OC)c1 [Example 55, N-t-Butyloxycarbonyl-L-tryptophyl-L-3-(2-naphthyl)alanyl-L-aspartyl-2,4,6-trimethoxyphenethylamide]	6.4	–	–
CC(C)(C)OC(=O)N[C@H](Cc1c[nH]c2ccccc12)C(=O)N[C@@H](Cc1ccc2ccccc2c1)C(=O)N[C@@H](CC(=O)O)C(=O)N[C@@H](Cc1ccccc1)C(N)=O [Example 22, N-t-Butyloxycarbonyl-D-tryptophyl-L-3-(2-naphthyl)alanyl-L-aspartyl-L-phenylalaninamide] (Boc-[dW][2Nal]DF-NH2)	–	–	Kb [1]: 631 nM
CC(C)(C)OC(=O)N[C@@H](Cc1c[nH]c2ccccc12)C(=O)N[C@@H](Cc1ccc2ccccc2c1)C(=O)N[C@@H](CC(=O)O)C(=O)NCCc1ccc(C(F)(F)F)cc1 [Example 28, N-t-Butyloxycarbonyl-L-tryptophyl-L-3-(2-naphthyl)alanyl-L-aspartyl-4-trifluoromethylphenethylamide]	6.4	–	–
CC(C)(C)OC(=O)N[C@@H](Cc1c[nH]c2ccccc12)C(=O)N[C@H](Cc1cccc2ccccc12)C(=O)N[C@@H](CC(=O)O)C(=O)N[C@@H](Cc1ccccc1)C(N)=O [Example 24, N-t-Butyloxycarbonyl-L-tryptophyl-D-3-(1-naphthyl)alanyl-L-aspartyl-L-phenylalaninamide] (Boc-W[d1Nal]DF-NH2)	–	50	Kb [1]: 316 nM; Kb (gastrin receptor; isolated mouse stomach assay, gastrin antagonism, standard errors less than 5%, read-out: pKB mouse stomach (converted)): 251 nM
NC(=O)[C@H](Cc1ccccc1)NC(=O)[C@H](CC(=O)O)NC(=O)[C@H](Cc1ccc2ccccc2c1)NC(=O)[C@H](Cc1c[nH]c2ccccc12)NC(=O)OC12CC3CC(CC(C3)C1)C2 [Example 13, N-1-Adamantyloxycarbonyl-L-tryptophyl-L-3-(2-naphthyl)alanyl-L-aspartyl-L-phenylalaninamide] (Adoc-W[2Nal]DF-NH2)	–	–	Kb [1]: 1260 nM
CC(C)(C)OC(=O)N[C@@](C)(Cc1c[nH]c2ccccc12)C(=O)N[C@@H](Cc1ccc2ccccc2c1)C(=O)N[C@@H](CC(=O)O)C(=O)N[C@@H](Cc1ccccc1)C(N)=O [Example 17, N-t-Butyloxycarbonyl-a-methyl-tryptophyl-L-3-(2-naphthyl)alanyl-L-aspartyl-L-phenylalaninamide] (Boc-[αMeW][2Nal]DF-NH2)	5.5	44	pKB mouse stomach (gastrin receptor; [2]): 5.9
CC(C)(C)OC(=O)N[C@@H](Cc1c[nH]c2ccccc12)C(=O)N[C@@H](Cc1ccc2ccccc2c1)C(=O)N[C@@H](CC(=O)O)C(=O)NCCc1cccc(C(F)(F)F)c1 [Example 50, N-t-Butyloxycarbonyl-L-tryptophyl-L-3-(2-naphthyl)alanyl-L-aspartyl-3-trifluoromethylphenethylamide]	6.1	–	–
CC(C)(C)OC(=O)N[C@@H](Cc1c[nH]c2ccccc12)C(=O)N[C@@H](Cc1ccc2ccccc2c1)C(=O)N[C@@H](CC(=O)O)C(=O)NC1Cc2ccccc2C1 [Example 53, N-t-Butyloxycarbonyl-L-tryptophyl-L-3-(2-naphthyl)alanyl-L-aspartyl-2-indanylamide]	6.6	–	–
CC(C)(C)OC(=O)N[C@@H](Cc1c[nH]c2ccccc12)C(=O)N[C@@H](Cc1ccc2ccccc2c1)C(=O)N[C@@H](CC(=O)O)C(=O)NCC12CC3CC(CC(C3)C1)C2 [Example 35, N-t-Butyloxycarbonyl-L-tryptophyl-L-3-(2-naphthyl)alanyl-L-aspartyl-1-adamantylmethylamide]	5.8	–	–
N-t-benzyloxycarbonyl-β-alanyl-L-tryptophyl-L-3-(2-naphthyl)alanyl-L- aspartyl-L-phenylalaninamide [Example 23]	5.9	40	pKB mouse stomach (gastrin receptor; [2]): 5.5
CNC(=O)[C@H](Cc1ccccc1)NC(=O)[C@H](CC(=O)O)NC(=O)[C@H](Cc1ccc2ccccc2c1)NC(=O)[C@H](Cc1c[nH]c2ccccc12)NC(=O)OC(C)(C)C [Example 5, N-t-Butyloxycarbonyl-L-tryptophyl-L-3-(2-naphthyl)alanyl-L-aspartyl-L-phenylalanyl-(N-methyl)amide] (Boc-W[2Nal]DF-NHMe)	5.4	23	pKB mouse stomach (gastrin receptor; [2]): 5.6
CC(C)(C)OC(=O)N[C@@H](Cc1cn(C=O)c2ccccc12)C(=O)N[C@@H](Cc1ccc2ccccc2c1)C(=O)N[C@@H](CC(=O)O)C(=O)N[C@@H](Cc1ccccc1)C(N)=O [Example 60, N-t-Butyloxycarbonyl-L-N^in-formyltryptophyl-L-3-(2-naphthyl)alanyl-L-aspartyl-L-phenylalaninamide] (Boc-W(For)[2Nal]DF-NH2)	6.4	20	pKB mouse stomach (gastrin receptor; [2]): 5.3
NC(=O)[C@H](Cc1ccccc1)NC(=O)[C@H](CC(=O)O)NC(=O)[C@H](Cc1ccc2ccccc2c1)NC(=O)CCc1c[nH]c2ccccc12 [Example 21, Indole-3-propionamido-L-3-(2-naphthyl)alanyl-L-aspartyl-L-phenylalaninamide]	6.2	–	–
COc1ccc(CCNC(=O)[C@H](CC(=O)O)NC(=O)[C@H](Cc2ccc3ccccc3c2)N(C)C(=O)[C@H](Cc2c[nH]c3ccccc23)NC(=O)OC(C)(C)C)cc1 [Example 59, N-t-Butyloxycarbonyl-L-tryptophyl-N-methyl-L-3-(2-naphthyl)alanyl-L-aspartyl-4-methoxyphenethylamide]	6.7	20	pKB mouse stomach (gastrin receptor; [2]): 5.3
COc1ccc(CCNC(=O)[C@H](CC(=O)O)NC(=O)[C@H](Cc2ccc3ccccc3c2)NC(=O)[C@H](Cc2c[nH]c3ccccc23)NC(=O)OC23CC4CC(CC(C4)C2)C3)cc1 [Example 14, N-1-Adamantyloxycarbonyl-L-tryptophyl-L-3-(2-naphthyl)alanyl-L-aspartyl-4-methoxyphenethylamide]	6.0	–	–
N-t-Butyloxycarbonyl-L-tryptophyl-L-3-(2-naphthyl)alanyl-L-aspartyl-2,4-dichlorophenethylamide [Example 37]	6.4	–	–
Cn1cc(C[C@H](NC(=O)OC(C)(C)C)C(=O)N[C@@H](Cc2ccc3ccccc3c2)C(=O)N[C@@H](CC(=O)O)C(=O)N[C@@H](Cc2ccccc2)C(N)=O)c2ccccc21 [Example 45, N-t-Butyloxycarbonyl-L-N^in-methyltryptophyl-L-3-(2-naphthyl)alanyl-L-aspartyl-L-phenylalaninamide] (Boc-[Trp(1-Me)][2Nal]DF-NH2)	6.1	–	–
